Our source for the MIC values is patent US9982005B2, “Macrolides and methods of their preparation and use” (President and Fellows of Harvard College, priority 2013, dated 2018).

Structures are written as SMILES. Values after ≈ are worked out from the molar mass of the structure shown. Like-named read-outs stand apart in the source and are kept apart here. A value given as a limit tells only on which side of the number the result lay.

Holding throughout (type): cell-based
In one test the test system is E. coli strains. The experiment in a line: MIC against E. coli strains (Table M7). Conditions: Escherichia coli, ATCC25922, E. coli ATCC 25922. The essentials:
(§1)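 CLSI procedure, broth dilution format, endpoint = MIC. Azithromycin as control macrolide.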

Another test has as its system EC878 E. coli tolC. The experiment in a line: broth dilution MIC, E. coli EC878. Conditions: Escherichia coli. An excerpt:
(§2) We have collected MIC data for a total of 50 novel macrolides that this platform has produced against over 21 unique strains of B. subtilis, E. coli, S. aureus, S. pneumoniae, and H. influenzae, including several multidrug-resistant strains, with a special focus on macrolide resistant mechanisms (vide supra). Azithromycin was included as a control macrolide. CLSI standard procedures for broth dilution MIC determination were used. […] These genotypes can be constitutive or inducible. The finding that C4-epi (unnatural) isomers of the “azaketolide” macrolide class have enhanced activities relative to C4 natural isomers is very exciting.
Background: Broth dilution looks for growth in wells or tubes with falling amounts of substance.

For another test, the system named is S. pneumoniae strains. The experiment in a line: MIC against S. pneumoniae strains (Tables M7, M8). Conditions: Streptococcus pneumoniae. An excerpt: CLSI standard procedures for broth dilution MIC determination were used. […] These genotypes can be constitutive or inducible.
Test [1] has as its system BS1723 B. subtilis BS168 WT wild type. The experiment in a line: broth dilution MIC, B. subtilis BS1723. Conditions: Bacillus subtilis, BS1723 B. subtilis BS168 WT wild type; read-out: MIC.
Excerpt: as §2

In test [2] the test system is SA101 S. aureus ATCC29213. The experiment in a line: broth dilution MIC, S. aureus SA101. Conditions: Staphylococcus aureus, ATCC29213, SA101 S. aureus ATCC29213; read-out: MIC.
Excerpt: as §2

A further test deals with E. faecalis strains. The experiment in a line: MIC against E. faecalis strains (Table M8). The settings on record: Enterococcus faecalis, E. faecalis 29212.
The next test has as its system BS1725 B. subtilis ermC. The experiment in a line: broth dilution MIC, B. subtilis BS1725. The settings on record: Bacillus subtilis.
Excerpt: as §2

A further test deals with K. pneumoniae strains. The experiment in a line: MIC against K. pneumoniae strains (Table M8). The settings on record: Klebsiella pneumoniae, K. pneumoniae 10031.
For the next test, the system named is EC882 E. coli imp. The experiment in a line: broth dilution MIC, E. coli EC882. Conditions: Escherichia coli.
Excerpt: as §2

In a further test the test system is A. baumannii strains. The experiment in a line: MIC against A. baumannii strains (Table M8). The settings on record: Acinetobacter baumannii, BAA747, A. baumannii BAA747-1.
Another test relates to S. aureus strains. The experiment in a line: MIC against S. aureus strains (Table M7). The settings on record: Staphylococcus aureus. The method in brief: as §1
The next test relates to EC107 E. coli ATCC25922. The experiment in a line: broth dilution MIC, E. coli EC107. Conditions: Escherichia coli, read-out: MIC.
Excerpt: as §2

A further test has as its system H. influenzae strains. The experiment in a line: MIC against H. influenzae strains (Table M8). The settings on record: Haemophilus influenzae. The essentials:
as §1

The mark [3] stands for this setting: S. pneumoniae 160, read-out: MIC S. pneumonae (160).
Setting [4] is: S. pneumoniae 1509, read-out: MIC S. pneumoniae (1509).
Setting [5] is: S. pneumoniae 1533, read-out: MIC S. pneumoniae (1533).
The mark [6] stands for this setting: S. pneumoniae 1537, read-out: MIC S. pneumoniae (1537).
Setting [7] is: S. pneumoniae 49619, read-out: MIC S. pneumoniae (49619).
The mark [8] stands for this setting: ATCC29213, S. aureus ATCC 29213, read-out: MIC S. aureus (ATCC 29213).
[9] abbreviates: S. aureus 506, read-out: MIC S. aureus (506).
Setting [10] is: S. aureus 1708, read-out: MIC S. aureus (1708).
[11] abbreviates: USA300, S. aureus USA300, read-out: MIC S. aureus (USA300).
The mark [12] stands for this setting: H. influenzae 49247, read-out: MIC H. influenzae (49247).
The mark [13] stands for this setting: H. influenzae 49766, read-out: MIC H. influenzae (49766).

Take `CC[C@H]1OC(=O)[C@H](C)C(=O)C[C@@H](O[C@@H]2OC(C)CC(N(C)C)C2O)[C@](C)(OC)C[C@@H](C)CN[C@H](C)[C@H]2N(CCCCn3cc(-c4cccc(N)c4)nn3)C(=O)O[C@]12C` (stereo partly drawn) [FSM-10781]: the MIC in the test on E. coli strains is 32 µg/mL (≈ 39.3 µM); in the test with EC878 E. coli tolC it was 1 µg/mL (≈ 1.23 µM); in the test on S. pneumoniae strains (setting [3]), 2 µg/mL (≈ 2.46 µM); in the test with S. pneumoniae strains (setting [4]), over 32 µg/mL; with S. pneumoniae strains (setting [5]), over 32 µg/mL; in the test with S. pneumoniae strains (setting [6]) it was over 32 µg/mL. Also, the MIC in the test on S. pneumoniae strains (setting [7]) was 8 µg/mL (≈ 9.83 µM); in [1], over 32 µg/mL; in test [2], over 32 µg/mL; in the test on E. faecalis strains, 8 µg/mL (≈ 9.83 µM); in the test on BS1725 B. subtilis ermC (BS1725 B. subtilis ermC (+ery)), over 32 µg/mL; against BS1725 B. subtilis ermC (BS1725 B. subtilis ermC (−ery)) it was over 32 µg/mL. The MIC in the test with K. pneumoniae strains is 8 µg/mL (≈ 9.83 µM); against EC882 E. coli imp it was 0.25 µg/mL (≈ 0.307 µM); with A. baumannii strains it was 32 µg/mL (≈ 39.3 µM); with S. aureus strains (setting [8]) it was over 32 µg/mL; with S. aureus strains (setting [9]) it was over 32 µg/mL; with S. aureus strains (setting [10]) it was over 32 µg/mL. Moreover, the MIC with S. aureus strains (setting [11]) was over 32 µg/mL; with EC107 E. coli ATCC25922 it was 16 µg/mL (≈ 19.7 µM); with H. influenzae strains (setting [12]), 1 µg/mL (≈ 1.23 µM); with H. influenzae strains (setting [13]), 8 µg/mL (≈ 9.83 µM).
With `CC[C@H]1OC(=O)[C@H](C)C(=O)C[C@@H](O[C@@H]2OC(C)CC(N(C)C)C2O)[C@@](C)(OC)C[C@@H](C)CN[C@H](C)[C@H]2N(CCCCn3cc(-c4cccc(N)c4)nn3)C(=O)O[C@]12C` (stereo partly drawn) [FSM-30502], the MIC in the test on E. coli strains, against EC878 E. coli tolC, in the test on S. pneumoniae strains (setting [3]), in the test on S. pneumoniae strains (setting [4]), with S. pneumoniae strains (setting [5]) and in the test on S. pneumoniae strains (setting [6]) was over 32 µg/mL in each case. In addition, the MIC (in the test on S. pneumoniae strains (setting [7]); in [1]; in test [2]; with E. faecalis strains; in the test on BS1725 B. subtilis ermC (BS1725 B. subtilis ermC (+ery)); against BS1725 B. subtilis ermC (BS1725 B. subtilis ermC (−ery))) was over 32 µg/mL in each case. The MIC with K. pneumoniae strains, in the test with EC882 E. coli imp, with A. baumannii strains, in the test with S. aureus strains (setting [8]), in the test with S. aureus strains (setting [9]) and with S. aureus strains (setting [10]) was over 32 µg/mL each time. Further, the MIC is over 32 µg/mL in the test on S. aureus strains (setting [11]), over 32 µg/mL with EC107 E. coli ATCC25922, 16 µg/mL (≈ 19.7 µM) with H. influenzae strains (setting [12]) and over 32 µg/mL in the test on H. influenzae strains (setting [13]).
`CC[C@H]1OC(=O)[C@H](C)C(=O)[C@H](C)[C@@H](O[C@@H]2OC(C)CC(N(C)C)C2O)[C@](C)(OC)C[C@@H](C)CN(C(C)=O)[C@H](C)[C@H]2N(CCCCn3cc(-c4cccc(N)c4)nn3)C(=O)O[C@]12C` (stereo partly drawn) [FSM-20767]: the MIC was over 32 µg/mL in the test on E. coli strains; 4 µg/mL (≈ 4.6 µM) in the test on EC878 E. coli tolC; 2 µg/mL (≈ 2.3 µM) in the test with S. pneumoniae strains (setting [3]); over 32 µg/mL in the test with S. pneumoniae strains (setting [4]); over 32 µg/mL with S. pneumoniae strains (setting [5]); over 32 µg/mL in the test on S. pneumoniae strains (setting [6]). The MIC was 0.5 µg/mL (≈ 0.575 µM) in the test on S. pneumoniae strains (setting [7]); 16 µg/mL (≈ 18.4 µM) in test [1]; 16 µg/mL (≈ 18.4 µM) in test [2]; 4 µg/mL (≈ 4.6 µM) in the test on E. faecalis strains; over 32 µg/mL against BS1725 B. subtilis ermC (BS1725 B. subtilis ermC (+ery)); 8 µg/mL (≈ 9.19 µM) in the test on BS1725 B. subtilis ermC (BS1725 B. subtilis ermC (−ery)). The MIC against K. pneumoniae strains was 32 µg/mL (≈ 36.8 µM); with EC882 E. coli imp, 1 µg/mL (≈ 1.15 µM); against A. baumannii strains, over 32 µg/mL; with S. aureus strains (setting [8]) it was 16 µg/mL (≈ 18.4 µM); in the test on S. aureus strains (setting [9]), over 32 µg/mL; in the test on S. aureus strains (setting [10]) it was 32 µg/mL (≈ 36.8 µM). Besides, the MIC was 32 µg/mL (≈ 36.8 µM) in the test on S. aureus strains (setting [11]), over 32 µg/mL in the test with EC107 E. coli ATCC25922, 8 µg/mL (≈ 9.19 µM) in the test on H. influenzae strains (setting [12]) and 16 µg/mL (≈ 18.4 µM) in the test on H. influenzae strains (setting [13]).
